Data reported in patent US7666635B2, “Process for the preparation of amides” (priority 1997, dated 2010).
Where two headings read alike, the source gives them in different places.

Key:
[1] = test system: Purified enzyme from NA40 (nitrile hydratase); test: Activity for 3-cyanopyridine, purified enzyme; format: biochemical, Amycolatopsis NA40
Method: […] The reaction was stopped by addition of 0.2 ml of 3 N HCl. After centrifuging briefly, the nicotinamide formed was determined by means of HPLC (Shimadzu SPD 6A system using a C18 column (Develosil ODS-HG-5. […]); eluent: 10 mM KH2PO4/H3PO4 (pH 2.8)/acetonitrile 9:1 (v/v); flow rate: 1 ml/min; the absorption was measured at 230 nm). The specific activity was expressed as µmol of nicotinamide formed/ml/min/OD610 nm.
(§1) The reaction rates of aliphatic nitriles in the enrichment medium (Table 1) with isolated bacteria is summarized in Table 5, the effects of inducers and cofactors in the basal medium (Table 2) is summarized in Table 4 and the activity comparison of Amycolatopsis to Rhodoccus in the basal medium (Table 2) is summarized in Table 6.

[2] = test system: NA40 nitrile hydratase (resting NA40 cells); test: Substrate specificity of resting NA40 cells; format: cell-based, Amycolatopsis NA40
Method: (3) For determination of the activity of NA40 with respect to a number of substrates, cells having a dry weight of 0.0388 mg were incubated in the buffer described above. The reaction was started by addition of the appropriate substrate and incubated at 20° C. with shaking for 10 min. The reaction was stopped by addition of 0.2 ml of 2 N HCl and the reaction mixture was briefly centrifuged. The supernatant was analysed by means of HPLC or gas chromatography.

[3] = test system: nitrile hydratase of NA40; test: Determination of the KM value (Lineweaver-Burk diagram); format: biochemical, Amycolatopsis NA40; conditions: substance as substrate; 20 ° C., 45 mM phosphate buffer, pH 7.0
Method: The KM value was determined to be 41.7 mM for 3-cyanopyridine and to be 3.7 mM for acrylonitrile by means of the Lineweaver-Burk diagram. […] This is one of the main advantages of NA40.

Rhodoccus GF376 = test: Tolerance of 3-cyanopyridine on the activity of resting cells; format: cell-based, Rhodococcus GF376; conditions: substrate concentration of 10% (w/v), resting cells 15 min at 20° C.
Method: (§2) In order to test the tolerance of 3-cyanopyridine, resting cells were incubated for 15 min at 20° C. at concentrations of 3-cyanopyridine between 1 and 10% (w/v) and the cells were then removed by centrifugation. After washing the cells with 0.85% NaCl, the remaining activity was measured.
(§3) The tolerance of 3-cyanopyridine as a substrate was tested at various substrate concentrations.

[4] = molecular target: T1, Purified enzyme from J1 (nitrile hydratase) (Rhodococcus rhodochrous, UniProt P21219+P21220); test: Activity for 3-cyanopyridine, purified enzyme; format: biochemical
T1 construct: host or cells: Rhodococcus rhodochrous J1 (native producer)

Rhodoccus GF578 = test: Tolerance of 3-cyanopyridine on the activity of resting cells; format: cell-based, Rhodococcus GF578; conditions: up to a substrate concentration of 8%, resting cells 15 min at 20° C.
Method: as §2, §3

Rhodoccus GF270 = test: as above; format: cell-based, Rhodococcus GF270; conditions: substrate concentration of 4% (w/v), resting cells 15 min at 20° C.
Method: as §2, §3

Rhodoccus rhodochrous J1 = test: as above; format: cell-based, Rhodococcus rhodochrous J1; conditions: substrate concentration of 2% (w/v), resting cells 15 min at 20° C.
Method: as §2, §3

[5] = test system: purified nitrile hydratase from NA40; test: Substrate specificity of the purified nitrile hydratase; format: biochemical, Amycolatopsis NA40
Method: The substrate specificity was determined analogously to Example 2 (1).
1.7 Units of enzyme were added to the reaction mixture (2.0 ml). The reaction mixture contained the respective substrate in 45 mM phosphate buffer (pH 7.0).

Rhodococcus GF270 = test: Substrate specificity of the Rhodococcus strains; format: cell-based
Method: (§4) Rhodococcus rhodochrous J1 was cultured for 72 h in the medium described in EP-A 0 307 926. The microorganisms Rhodoccus GF674, GF578, GF270 and GF376 were cultured in the following media at pH 7.0 for up to 96 h:
(§5) Rhodoccus GF674 in a medium comprising yeast extract 1.0 g/l, fructose 5.0 g/l, malt extract 10.0 g/l, acetamide 5.0 g/l, KH2PO4 2.0 g/l, MgSO47H2O 0.5 g/l and CoCl2.6H2O 10.0 mg. Rhodoccus GF578 in a medium containing yeast extract 1.0 g/l, fructose 15.0 g/l, malt extract 10.0 g/l, acetamide 25.0 g/l, KH2PO4 2.0 g/l, MgSO47H2O 0.5 g/l and CoCl2.6H2O 5.0 mg. […] Rhodoccus GF3 76 in a medium containing yeast extract 1.0 g/l, sodium citrate 10.0 g/l, malt extract 15.0 g/l, butyramide 7.5 g/l, KH2PO4 2.0 g/l, MgSO4.7H2O 0.5 g/l and CoCl2.6H2O 15.0 mg.
(§6) The substrate specificity is summarized as relative activity in Table 15.

Rhodococcus GF674 = test: Substrate specificity of the Rhodococcus strains; format: cell-based
Method: as §4, §5, §6

Rhodococcus GF376 = test: Substrate specificity of the Rhodococcus strains; format: cell-based
Method: as §4, §5, §6

Rhodococcus GF578 = test: Substrate specificity of the Rhodococcus strains; format: cell-based
Method: as §4, §5, §6

[6] = test system: Rhodococcus rhodochrous J1; test: Substrate specificity of the Rhodococcus strains; format: cell-based
Method: as §4, §6

[7] = test system: Rhodococcus rhodochrous J1; test: Activity for 3-cyanopyridine, microorganism (comparison in basal medium); format: cell-based
Method: (§7) (1) For determination of the nitrile hydratase activity, a reaction mixture (2 ml) containing 3-cyanopyridine (1.0 M, 1.0 ml), potassium phosphate buffer (pH 7.0, 0.1 M, 0.5 ml) and 0.5 ml of cell suspension were incubated at 20° C. for 30 min with stirring. The reaction was stopped by addition of 0.2 ml of 3 N HCl. After centrifuging briefly, the nicotinamide formed was determined by means of HPLC (Shimadzu SPD 6A system using a C18 column (Develosil ODS-HG-5. […]); eluent: 10 mM KH2PO4/H3PO4 (pH 2.8)/acetonitrile 9:1 (v/v); flow rate: 1 ml/min; the absorption was measured at 230 nm). The specific activity was expressed as µmol of nicotinamide formed/ml/min/OD610 nm.
as §1

[8] = test system: Amycolatopsis NA40 (DSMZ 11617); test: as above; format: cell-based
Method: as §7, §1

Rhodoccus GF674 = test: Tolerance of 3-cyanopyridine on the activity of resting cells; format: cell-based, Rhodococcus GF674; conditions: substrate concentration of 4% (w/v), resting cells 15 min at 20° C.
Method: as §2, §3

[9] = test system: Amycolatopsis NE31 (DSMZ 11616); test: Conversion rates of aliphatic nitriles using the isolated bacteria (enrichment medium); format: cell-based
Method: (§8) a) Various soil samples were inoculated with various nitriles or amides as a C and N source in the enrichment medium according to Table 1 and incubated at 37° C. or 45° C. for 7 10 days. The cultures were then transferred to the same medium and again cultured at 37° C. for 7 10 days. The whole process was repeated 3 times. The cultures were then diluted and plated out in order to obtain individual colonies. The plates were incubated at 37° C. for 5 days. The different colonies were then tested for the desired activity.
(§9) […] as a C and N source for Amycolatopsis NE31 (DSMZ 11616) Actinomadura spadix E3733 and Actinomadura spadix E3736, azelanitrile served as a C and N source for Amycolatopsis NA40 (DSMZ 11617) and Actinomadura spadix 45A32, n-octanenitrile served as a C and N source for Actinomadura spadix 4501 and cyanoacetic acid served as a C and N source for Actinomadura spadix C15.
as §7, §1

[10] = test system: Actinomadura spadix E3736; test: as above; format: cell-based
Method: as §8, §9, §7, §1

[11] = test system: Actinomadura spadix E3733; test: as above; format: cell-based
Method: as §8, §9, §7, §1

[12] = test system: Actinomadura spadix 45A32; test: as above; format: cell-based
Method: as §8, §9, §7, §1

[13] = test system: Amycolatopsis NA40 (DSMZ 11617); test: as above; format: cell-based
Method: as §8, §9, §7, §1

Actinomadura spadix C15 = test: as above; format: cell-based
Method: as §8, §9, §7, §1

[14] = test system: purified nitrile hydratase from NA40; test: Substrate specificity of the purified nitrile hydratase; format: biochemical, Amycolatopsis NA40; conditions: pH 7
[15] = resting NA40 cells, 20° C., 10 min, 3-cyanopyridine = 100, substrate concentration per Table 8
[16] = purified enzyme, 3-cyanopyridine = 100
[17] = Rhodococcus GF270, 3-cyanopyridine = 100
[18] = Rhodococcus GF674, 3-cyanopyridine = 100
[19] = Rhodococcus GF376, 3-cyanopyridine = 100
[20] = Rhodococcus GF578, 3-cyanopyridine = 100
[21] = Rhodococcus rhodochrous J1, 3-cyanopyridine = 100

T1 sequence (P21219 2-203 limits assumed): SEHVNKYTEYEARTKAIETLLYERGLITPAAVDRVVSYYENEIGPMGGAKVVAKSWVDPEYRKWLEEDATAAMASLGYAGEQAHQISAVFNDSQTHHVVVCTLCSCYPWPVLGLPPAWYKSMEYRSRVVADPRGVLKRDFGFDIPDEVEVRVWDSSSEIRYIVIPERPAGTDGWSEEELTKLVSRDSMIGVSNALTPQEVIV
T1 sequence (P21220 whole entry): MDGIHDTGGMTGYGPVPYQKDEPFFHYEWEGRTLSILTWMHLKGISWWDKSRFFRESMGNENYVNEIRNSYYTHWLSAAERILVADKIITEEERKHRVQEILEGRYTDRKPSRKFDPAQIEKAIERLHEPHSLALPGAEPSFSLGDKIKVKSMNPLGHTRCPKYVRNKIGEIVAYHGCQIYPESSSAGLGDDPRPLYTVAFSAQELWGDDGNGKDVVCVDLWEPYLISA

N#Cc1cccnc1 [3-Cyanopyridine]
Activity for 3-cyanopyridine [1]: 1110 μmol/min/mg protein
Relative activity [2, 15]: 100%
Km [3]: 41.7 mM
nitrile hydratase activity decreased by the factor (Rhodoccus GF376): 1.25
Activity for 3-cyanopyridine [4]: 371 μmol/min/mg protein
nitrile hydratase activity (Rhodoccus GF578): remained nearly constant
nitrile hydratase activity decreased by the factor (Rhodoccus GF270): 1.17
nitrile hydratase activity decreased by the factor (Rhodoccus rhodochrous J1): 1.4
Relative activity, Enzyme reaction [5, 16]: 100%
relative activity (substrate specificity) (Rhodococcus GF270; [17]): 100%
relative activity (substrate specificity) (Rhodococcus GF674; [18]): 100%
relative activity (substrate specificity) (Rhodococcus GF376; [19]): 100%
relative activity (substrate specificity) (Rhodococcus GF578; [20]): 100%
relative activity (substrate specificity) [6, 21]: 100%
Activity for 3-cyanopyridine [7]: 314
Activity for 3-cyanopyridine [8]: 303 µmol/mL/min
nitrile hydratase activity decreased by the factor (Rhodoccus GF674): 1.4

C=CC#N [Acrylonitrile]
Relative activity [2, 15]: 115%
Km [3]: 3.7 mM
Relative activity, Enzyme reaction [5, 16]: 94%
relative activity (substrate specificity) (Rhodococcus GF270; [17]): 192%
relative activity (substrate specificity) (Rhodococcus GF674; [18]): 147%
relative activity (substrate specificity) (Rhodococcus GF376; [19]): 257%
relative activity (substrate specificity) (Rhodococcus GF578; [20]): 101%
relative activity (substrate specificity) [6, 21]: 478%

N#CCCCCC#N [Adiponitrile]
Specific activity ([9]; strain NE31): 0.141 μmol/ml/min/OD
Total activity ([9]; strain NE31): 0.377 µmol/mL/min
Growth (OD610 nm) ([9]; strain NE31, nitrile as substrate in enrichment medium): 2.68 OD610 nm
Specific activity ([10]; strain E3736): 2.21 μmol/ml/min/OD
Total activity ([10]; strain E3736): 3.00 µmol/mL/min
Growth (OD610 nm) ([10]; strain E3736, nitrile as substrate in enrichment medium): 1.36 OD610 nm
Specific activity ([11]; strain E3733): 0.214 μmol/ml/min/OD
Total activity ([11]; strain E3733): 0.347 µmol/mL/min
Growth (OD610 nm) ([11]; strain E3733, nitrile as substrate in enrichment medium): 1.62 OD610 nm

N#CCCCCCCCC#N [Azelanitrile]
Specific activity ([12]; strain 45A32): 3.23 μmol/ml/min/OD
Total activity ([12]; strain 45A32): 18.8 µmol/mL/min
Growth (OD610 nm) ([12]; strain 45A32, nitrile as substrate in enrichment medium): 5.81 OD610 nm
Specific activity ([13]; strain NA40): 5.57 μmol/ml/min/OD
Total activity ([13]; strain NA40): 33.0 µmol/mL/min
Growth (OD610 nm) ([13]; strain NA40, nitrile as substrate in enrichment medium): 5.92 OD610 nm

N#CCC(=O)O [Cyanoacetic acid]
Specific activity (Actinomadura spadix C15; strain C15): 3.43 μmol/ml/min/OD
Total activity (Actinomadura spadix C15; strain C15): 7.01 µmol/mL/min
Growth (OD610 nm) (Actinomadura spadix C15; strain C15, substrate in enrichment medium): 2.04 OD610 nm

N#Cc1ccc(Cl)cc1 [p-Chlorobenzonitrile]
Relative activity [2]: 16%
Relative activity, Enzyme reaction [5]: 13%
relative activity (substrate specificity) (Rhodococcus GF270): 0%
relative activity (substrate specificity) (Rhodococcus GF674): 0%
relative activity (substrate specificity) (Rhodococcus GF376): 0%
relative activity (substrate specificity) (Rhodococcus GF578): 0%
Total activity [14]: 2.30 µmol/mL/min
relative activity (substrate specificity) [6]: 13%
